Patent US20200237731A1, “USE OF CLOXACILLIN TO INHIBIT/PREVENT BIOFILM FORMATION” (priority 2017, published 2020)
Like-named read-outs stand apart in the source and are kept apart here.

What was measured:
[1] = system: clinical strains of Staphylococcus aureus; assay: MIC of cloxacillin by growth (absorbance) in 96-well microplates, Mueller-Hinton medium; assay type: cell-based; conditions: for MIC: Staphylococcus aureus, read-out: MH MIC
Protocol: The determination of each minimum inhibitory concentration (MIC) of cloxacillin was measured conventionally by measuring the growth of each strain in 96-well microplates in the presence of concentrations of antibiotic by absorbance.
The MIC was measured in Mueller-Hinton medium (MH; reference medium for antibiotic susceptibility testing) and brain heart infusion (BHI) medium.

[2] = system: Staphylococcus aureus strains S14 and S39; assay: Implanted subcutaneous catheter infection model in mice; assay type: in vivo; conditions: 12 h, 24 h and 30 h
[3] = system: Staphylococcus aureus strain S14; assay: Infected skin wound healing model in mice; assay type: in vivo, C57BL/6 mice
Protocol: The objective of these trials was to test the efficacy of cloxacillin, at selected doses, in an in vivo model of mouse skin wound infection with strains of Staphylococcus aureus. The in vivo efficacy of specific doses of cloxacillin, derived from the in vitro MIC and MICb doses, was determined by measuring bacterial load (established as a biofilm) at 12 h, Day 5 and Day 11 post-infection, and by measuring wound healing at Day 5 and Day 11 post-infection (as a wound healing score).
In this example, the mice used were 7-week-old female C57BL/6 mice weighing between 20 and 22 g from Janvier Labs, Le Genest St Isle, 53941 St Berthevin, France. The number of mice used was 5 per condition tested.
The concentration of S. aureus was adjusted in PBS to give a concentration of 10^6 CFU in 10 μL (10^8 CFU/mL). The mice, shaved on their backs, were anaesthetized with isoflurane gas and then 4 incisions were made on each side of the spine, defining 2 areas. In each mouse, only one of the areas was infected by subcutaneous injection of 10 μL of S. aureus solution, with the contralateral area serving as the uninfected control.
To test the effect of cloxacillin, 3 groups of mice received, 30 minutes pre-infection, a “preventive” treatment of 5 mg/kg cloxacillin (for mice subsequently receiving cloxacillin at 3 mg/kg) or 30 mg/kg cloxacillin (for mice subsequently receiving cloxacillin at 15 mg/kg) or sterile saline intraperitoneally. These doses were determined in an in-house PK/PD study.
The mice were then treated every two hours after the first preventive treatment for 10 hours with cloxacillin at 3 mg/kg or 15 mg/kg or saline. These doses were pre-determined to simulate blood levels between the planktonic MIC and the biofilm MIC of strain S14.
Three groups of mice were used, a first group being sacrificed at t+12 h after infection to measure the bacterial load. A second group was treated identically and sacrificed 5 days after infection and a third group, treated identically, was sacrificed 11 days after infection. Each day, a healing score is established on the animals, and on the sacrificed animals, a count of the bacteria installed is made (at D5 and D11). The score is established as follows, assigning a value between 0 and 3.
The skin at the wounds is cut, rinsed in PBS to remove non-adhered bacteria and then the tissue is homogenized in Precellys tubes using glass beads. The resulting homogenate was diluted serially, and different dilutions were spread on TSA media plates and cultured overnight at 37° C. Colonies (CFU) were quantified for each dilution and the bacterial load at the wound site was determined.

For `Cc1onc(-c2ccccc2Cl)c1C(=O)N[C@@H]1C(=O)N2[C@@H]1SC(C)(C)[C@@H]2C(=O)O` [cloxacillin], the MIC ([1]; strain S02) was 0.125 µg/mL, the MIC ([1]; strain S04) was 0.25 µg/mL and the MIC ([1]; strain S08) was 0.25 µg/mL. For the same compound, the MIC ([1]; strain S11) was 0.5 µg/mL, the MIC ([1]; strain S14) was 0.25 µg/mL and the MIC ([1]; strain S16) was 0.25 µg/mL. The MIC ([1]; strain S19) was 0.5 µg/mL, the MIC ([1]; strain S21) was 0.25 µg/mL and the MIC ([1]; strain S22) was 0.5 µg/mL. The MIC ([1]; strain S26) was 0.25 µg/mL, the MIC ([1]; strain S27) was 0.25 µg/mL and the MIC ([1]; strain S31) was 0.25 µg/mL. The MIC ([1]; strain S34) was 0.5 µg/mL, the MIC ([1]; strain S38) was 0.5 µg/mL and the MIC ([1]; strain S39) was 0.5 µg/mL. It also gave an MIC ([1]; strain S40) of 0.5 µg/mL, an MIC ([1]; strain S43) of 0.25 µg/mL and an MIC ([1]; strain S44) of 0.25 µg/mL. The MIC ([1]; strain S46) was 0.25 µg/mL, the MIC ([1]; strain S47) was 0.25 µg/mL and the MIC ([1]; strain S51) was 0.25 µg/mL. The MIC ([1]; strain S58) was 0.25 µg/mL, the MIC ([1]; strain S62) was 0.25 µg/mL and the MIC ([1]; strain S63) was 0.25 µg/mL. For the same compound, the MIC ([1]; strain S74) was 0.25 µg/mL, the MIC ([1]; strain S83) was 0.125 µg/mL and the “MH MIC” value ([1]; strain S02) was 0.125 µg/mL. The “MH MIC” value ([1]; strain S38) was 0.5 µg/mL, the “MH MIC” value ([1]; strain S58) was 0.25 µg/mL and the “MH MIC” value ([1]; strain S83) was 0.125 µg/mL. For the same compound, the “bacteria attached to the implanted catheter (log CFU/g catheter) vs control” value ([2]; strain S14, MIC dose (5 mg/kg pre-infection, then 3 mg/kg every 2 h for 10 h, intraperitoneal)) was “ineffectiveness”, the “bacteria attached to the implanted catheter (log CFU/g catheter) vs control” value ([2]; strain S14, MICb dose (30 mg/kg pre-infection, then 15 mg/kg every 2 h for 10 h, intraperitoneal)) was “statistically significant difference from control (***)” and the “bacteria attached to the implanted catheter (log CFU/g catheter) vs control” value ([2]; strain S39, MIC dose (7 mg/kg pre-infection, then 4 mg/kg every 2 h for 10 h, intraperitoneal)) was “ineffectiveness”. The “bacteria attached to the implanted catheter (log CFU/g catheter) vs control” value ([2]; strain S39, MICb dose (45 mg/kg pre-infection, then 25 mg/kg every 2 h for 10 h, intraperitoneal)) was “statistically significant difference from control (***)”, the wound-healing score ([3]; infected wounds, strain S14, MIC dose (3 mg/kg)) was “absence of cloxacillin effect on wound healing” and the wound-healing score ([3]; infected wounds, strain S14, MICb dose (15 mg/kg), up to day 6) was “decreases more rapidly”. The “decrease of bacterial load at the wound site vs control” value ([3]; strain S14, MICb dose (15 mg/kg), 12 h post-infection) was ~3 logio and the wound-healing score ([3]; uninfected wounds) was “does not have a per se effect on wound healing”.
